Results: paper PMC6009956, “Design, synthesis and biological activity of N^4-phenylsubstituted-7H-pyrrolo[2,3-d]pyrimidin-4-amines as dual inhibitors of aurora kinase A and epidermal growth factor receptor kinase” (Journal of Enzyme Inhibition and Medicinal Chemistry, 2017)
Like-named read-outs stand apart in the source and are kept apart here. Blank lines part the entries; values can stand above or below the molecule they belong to.

Columns and labels:
EGFR = EGFR (Homo sapiens, UniProt P00533); test: ADP-Glo kinase assay, EGFR; type: biochemical; design: purchased BPS Bioscience (assay run externally by the vendor)
EGFR, sequence (P00533 25-1210): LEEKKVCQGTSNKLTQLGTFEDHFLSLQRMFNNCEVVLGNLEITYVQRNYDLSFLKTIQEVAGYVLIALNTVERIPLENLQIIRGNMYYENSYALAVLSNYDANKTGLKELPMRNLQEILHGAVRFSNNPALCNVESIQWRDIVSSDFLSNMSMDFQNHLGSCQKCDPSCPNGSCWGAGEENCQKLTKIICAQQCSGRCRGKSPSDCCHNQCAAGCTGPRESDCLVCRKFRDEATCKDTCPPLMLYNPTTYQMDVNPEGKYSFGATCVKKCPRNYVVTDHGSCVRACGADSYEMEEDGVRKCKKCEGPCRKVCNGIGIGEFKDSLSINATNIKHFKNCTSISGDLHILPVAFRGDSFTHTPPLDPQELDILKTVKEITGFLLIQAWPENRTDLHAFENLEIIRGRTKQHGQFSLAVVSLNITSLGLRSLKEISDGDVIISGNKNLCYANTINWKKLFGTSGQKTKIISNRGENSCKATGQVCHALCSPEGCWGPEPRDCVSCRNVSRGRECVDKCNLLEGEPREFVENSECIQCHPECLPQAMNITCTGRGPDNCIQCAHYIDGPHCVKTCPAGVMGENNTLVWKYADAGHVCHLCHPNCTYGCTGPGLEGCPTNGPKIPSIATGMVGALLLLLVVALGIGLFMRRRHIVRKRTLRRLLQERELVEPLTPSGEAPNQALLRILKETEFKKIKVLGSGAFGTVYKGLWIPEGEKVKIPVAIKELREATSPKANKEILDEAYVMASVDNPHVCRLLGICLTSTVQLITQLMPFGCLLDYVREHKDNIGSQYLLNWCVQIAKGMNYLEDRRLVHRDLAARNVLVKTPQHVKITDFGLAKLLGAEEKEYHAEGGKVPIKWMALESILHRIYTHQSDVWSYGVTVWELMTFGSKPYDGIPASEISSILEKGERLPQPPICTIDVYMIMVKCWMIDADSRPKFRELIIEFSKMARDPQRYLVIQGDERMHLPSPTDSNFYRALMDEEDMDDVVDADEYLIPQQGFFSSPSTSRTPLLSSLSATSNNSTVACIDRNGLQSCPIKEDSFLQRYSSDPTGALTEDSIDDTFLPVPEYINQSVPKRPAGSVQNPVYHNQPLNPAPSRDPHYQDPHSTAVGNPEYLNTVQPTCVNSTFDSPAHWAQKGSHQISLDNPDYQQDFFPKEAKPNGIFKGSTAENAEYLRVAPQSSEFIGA

aurora A kinase (AURKA) = molecular target: T1, aurora A kinase (AURKA) (Homo sapiens, UniProt O14965); test: ADP-Glo kinase assay, Aurora A; type: biochemical
T1 construct: purchased BPS Bioscience (assay run externally by the vendor)
T1 sequence (O14965 1-403): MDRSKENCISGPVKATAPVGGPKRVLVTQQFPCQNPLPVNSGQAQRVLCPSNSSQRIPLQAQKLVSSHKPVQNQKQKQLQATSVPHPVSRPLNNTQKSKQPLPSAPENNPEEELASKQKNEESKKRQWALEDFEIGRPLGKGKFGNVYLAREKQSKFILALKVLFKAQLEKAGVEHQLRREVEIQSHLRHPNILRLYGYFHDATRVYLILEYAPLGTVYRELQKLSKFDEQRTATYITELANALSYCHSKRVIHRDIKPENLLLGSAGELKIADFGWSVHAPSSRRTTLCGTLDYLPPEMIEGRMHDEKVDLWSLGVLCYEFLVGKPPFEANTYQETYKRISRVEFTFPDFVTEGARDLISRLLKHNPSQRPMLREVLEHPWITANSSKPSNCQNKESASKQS

[1] = 10 µM ATP, triplicate, read-out: EGFR IC50 ± SD
[2] = 10 µM ATP/0.2 mg/ml Poly-Glu-Tyr, read-out: EGFR IC50 (dose-response curve, supplement)
[3] = 10 µM ATP, triplicate, read-out: AURKA IC50 ± SD
[4] = 10 µM ATP/0.2 mg/ml Kemptide, read-out: Aurora A IC50 (dose-response curve, supplement)

Fold less potent than compound 7 against EGFR (EGFR): 100 fold | IC50 (EGFR; [1]): 0.384 ± 0.0655 µM | IC50 (EGFR; [2]): 0.357 µM | EGFR % Activity Set1 (EGFR; Log[nM] 0): 97% | EGFR % Activity Set2 (EGFR; Log[nM] 0): 99% | EGFR % Activity Set3 (EGFR; Log[nM] 0): 99% | EGFR % Activity Set1 (EGFR; Log[nM] 1.0): 95% | EGFR % Activity Set2 (EGFR; Log[nM] 1.0): 102% | EGFR % Activity Set3 (EGFR; Log[nM] 1.0): 91% | EGFR % Activity Set1 (EGFR; Log[nM] 1.5): 93% | EGFR % Activity Set2 (EGFR; Log[nM] 1.5): 102% | EGFR % Activity Set3 (EGFR; Log[nM] 1.5): 84% | EGFR % Activity Set1 (EGFR; Log[nM] 2.0): 80% | EGFR % Activity Set2 (EGFR; Log[nM] 2.0): 83% | EGFR % Activity Set3 (EGFR; Log[nM] 2.0): 82% | EGFR % Activity Set1 (EGFR; Log[nM] 2.5): 51% | EGFR % Activity Set2 (EGFR; Log[nM] 2.5): 49% | EGFR % Activity Set3 (EGFR; Log[nM] 2.5): 53% | EGFR % Activity Set1 (EGFR; Log[nM] 3.0): 26% | EGFR % Activity Set2 (EGFR; Log[nM] 3.0): 23% | EGFR % Activity Set3 (EGFR; Log[nM] 3.0): 27% | EGFR % Activity Set1 (EGFR; Log[nM] 3.5): 12% | EGFR % Activity Set2 (EGFR; Log[nM] 3.5): 9% | EGFR % Activity Set3 (EGFR; Log[nM] 3.5): 10% | EGFR % Activity Set1 (EGFR; Log[nM] 4.0): 4% | EGFR % Activity Set2 (EGFR; Log[nM] 4.0): 5% | EGFR % Activity Set3 (EGFR; Log[nM] 4.0): 4% | EGFR % Activity Set1 (EGFR; Log[nM] 4.5): 2% | EGFR % Activity Set2 (EGFR; Log[nM] 4.5): 3% | EGFR % Activity Set3 (EGFR; Log[nM] 4.5): 1% | EGFR % Activity Set1 (EGFR; Log[nM] 5.0): 1% | EGFR % Activity Set2 (EGFR; Log[nM] 5.0): 1% | EGFR % Activity Set3 (EGFR; Log[nM] 5.0): 2% | Fold less potent than compound 2 against AURKA (aurora A kinase (AURKA)): approximately two-fold | IC50 (aurora A kinase (AURKA); [3]): 4.54 ± 0.93 µM | IC50 (aurora A kinase (AURKA); [4]): 4.5 µM | Aurora A % Activity Set1 (aurora A kinase (AURKA); Log[nM] 0): 103% | Aurora A % Activity Set2 (aurora A kinase (AURKA); Log[nM] 0): 107% | Aurora A % Activity Set3 (aurora A kinase (AURKA); Log[nM] 0): 99% | Aurora A % Activity Set1 (aurora A kinase (AURKA); Log[nM] 1.0): 110% | Aurora A % Activity Set2 (aurora A kinase (AURKA); Log[nM] 1.0): 101% | Aurora A % Activity Set3 (aurora A kinase (AURKA); Log[nM] 1.0): 111% | Aurora A % Activity Set1 (aurora A kinase (AURKA); Log[nM] 1.5): 109% | Aurora A % Activity Set2 (aurora A kinase (AURKA); Log[nM] 1.5): 108% | Aurora A % Activity Set3 (aurora A kinase (AURKA); Log[nM] 1.5): 105% | Aurora A % Activity Set1 (aurora A kinase (AURKA); Log[nM] 2.0): 109% | Aurora A % Activity Set2 (aurora A kinase (AURKA); Log[nM] 2.0): 109% | Aurora A % Activity Set3 (aurora A kinase (AURKA); Log[nM] 2.0): 109% | Aurora A % Activity Set1 (aurora A kinase (AURKA); Log[nM] 2.5): 96% | Aurora A % Activity Set2 (aurora A kinase (AURKA); Log[nM] 2.5): 101% | Aurora A % Activity Set3 (aurora A kinase (AURKA); Log[nM] 2.5): 113% | Aurora A % Activity Set1 (aurora A kinase (AURKA); Log[nM] 3.0): 84% | Aurora A % Activity Set2 (aurora A kinase (AURKA); Log[nM] 3.0): 80% | Aurora A % Activity Set3 (aurora A kinase (AURKA); Log[nM] 3.0): 92% | Aurora A % Activity Set1 (aurora A kinase (AURKA); Log[nM] 3.5): 55% | Aurora A % Activity Set2 (aurora A kinase (AURKA); Log[nM] 3.5): 57% | Aurora A % Activity Set3 (aurora A kinase (AURKA); Log[nM] 3.5): 59% | Aurora A % Activity Set1 (aurora A kinase (AURKA); Log[nM] 4.0): 30% | Aurora A % Activity Set2 (aurora A kinase (AURKA); Log[nM] 4.0): 28% | Aurora A % Activity Set3 (aurora A kinase (AURKA); Log[nM] 4.0): 29% | Aurora A % Activity Set1 (aurora A kinase (AURKA); Log[nM] 4.5): 11% | Aurora A % Activity Set2 (aurora A kinase (AURKA); Log[nM] 4.5): 11% | Aurora A % Activity Set3 (aurora A kinase (AURKA); Log[nM] 4.5): 11% | Aurora A % Activity Set1 (aurora A kinase (AURKA); Log[nM] 5.0): 8% | Aurora A % Activity Set2 (aurora A kinase (AURKA); Log[nM] 5.0): 7% | Aurora A % Activity Set3 (aurora A kinase (AURKA); Log[nM] 5.0): 8%
Compound: Nc1nc(Nc2cccc(Br)c2)c2cc[nH]c2n1 [Compound 8, N^4-(3-bromophenyl)-7H-pyrrolo[2,3-d]pyrimidine-2,4-diamine]

EGFR inhibition (in words) (EGFR): micromolar EGFR inhibition | Fold better for EGFR over AURKA (EGFR): 2 fold | Fold less potent than staurosporine against EGFR (EGFR): seven-fold | IC50 (EGFR; [1]): 2.94 ± 0.0944 µM | IC50 (EGFR; [2]): 3 µM | EGFR % Activity Set1 (EGFR; Log[nM] 0): 98% | EGFR % Activity Set2 (EGFR; Log[nM] 0): 102% | EGFR % Activity Set3 (EGFR; Log[nM] 0): 105% | EGFR % Activity Set1 (EGFR; Log[nM] 1.0): 102% | EGFR % Activity Set2 (EGFR; Log[nM] 1.0): 110% | EGFR % Activity Set3 (EGFR; Log[nM] 1.0): 108% | EGFR % Activity Set1 (EGFR; Log[nM] 1.5): 105% | EGFR % Activity Set2 (EGFR; Log[nM] 1.5): 106% | EGFR % Activity Set3 (EGFR; Log[nM] 1.5): 108% | EGFR % Activity Set1 (EGFR; Log[nM] 2.0): 99% | EGFR % Activity Set2 (EGFR; Log[nM] 2.0): 102% | EGFR % Activity Set3 (EGFR; Log[nM] 2.0): 104% | EGFR % Activity Set1 (EGFR; Log[nM] 2.5): 96% | EGFR % Activity Set2 (EGFR; Log[nM] 2.5): 93% | EGFR % Activity Set3 (EGFR; Log[nM] 2.5): 97% | EGFR % Activity Set1 (EGFR; Log[nM] 3.0): 72% | EGFR % Activity Set2 (EGFR; Log[nM] 3.0): 79% | EGFR % Activity Set3 (EGFR; Log[nM] 3.0): 78% | EGFR % Activity Set1 (EGFR; Log[nM] 3.5): 43% | EGFR % Activity Set2 (EGFR; Log[nM] 3.5): 48% | EGFR % Activity Set3 (EGFR; Log[nM] 3.5): 43% | EGFR % Activity Set1 (EGFR; Log[nM] 4.0): 23% | EGFR % Activity Set2 (EGFR; Log[nM] 4.0): 24% | EGFR % Activity Set3 (EGFR; Log[nM] 4.0): 22% | EGFR % Activity Set1 (EGFR; Log[nM] 4.5): 8% | EGFR % Activity Set2 (EGFR; Log[nM] 4.5): 9% | EGFR % Activity Set3 (EGFR; Log[nM] 4.5): 8% | EGFR % Activity Set1 (EGFR; Log[nM] 5.0): 4% | EGFR % Activity Set2 (EGFR; Log[nM] 5.0): 4% | EGFR % Activity Set3 (EGFR; Log[nM] 5.0): 4% | IC50 (aurora A kinase (AURKA); [3]): 6.68 ± 0.54 µM | IC50 (aurora A kinase (AURKA); [4]): 6.7 µM | Aurora A % Activity Set1 (aurora A kinase (AURKA); Log[nM] 0): 104% | Aurora A % Activity Set2 (aurora A kinase (AURKA); Log[nM] 0): 94% | Aurora A % Activity Set3 (aurora A kinase (AURKA); Log[nM] 0): 88% | Aurora A % Activity Set1 (aurora A kinase (AURKA); Log[nM] 1.0): 95% | Aurora A % Activity Set2 (aurora A kinase (AURKA); Log[nM] 1.0): 89% | Aurora A % Activity Set3 (aurora A kinase (AURKA); Log[nM] 1.0): 91% | Aurora A % Activity Set1 (aurora A kinase (AURKA); Log[nM] 1.5): 111% | Aurora A % Activity Set2 (aurora A kinase (AURKA); Log[nM] 1.5): 100% | Aurora A % Activity Set3 (aurora A kinase (AURKA); Log[nM] 1.5): 110% | Aurora A % Activity Set1 (aurora A kinase (AURKA); Log[nM] 2.0): 100% | Aurora A % Activity Set2 (aurora A kinase (AURKA); Log[nM] 2.0): 95% | Aurora A % Activity Set3 (aurora A kinase (AURKA); Log[nM] 2.0): 96% | Aurora A % Activity Set1 (aurora A kinase (AURKA); Log[nM] 2.5): 108% | Aurora A % Activity Set2 (aurora A kinase (AURKA); Log[nM] 2.5): 100% | Aurora A % Activity Set3 (aurora A kinase (AURKA); Log[nM] 2.5): 106% | Aurora A % Activity Set1 (aurora A kinase (AURKA); Log[nM] 3.0): 88% | Aurora A % Activity Set2 (aurora A kinase (AURKA); Log[nM] 3.0): 91% | Aurora A % Activity Set3 (aurora A kinase (AURKA); Log[nM] 3.0): 84% | Aurora A % Activity Set1 (aurora A kinase (AURKA); Log[nM] 3.5): 86% | Aurora A % Activity Set2 (aurora A kinase (AURKA); Log[nM] 3.5): 80% | Aurora A % Activity Set3 (aurora A kinase (AURKA); Log[nM] 3.5): 76% | Aurora A % Activity Set1 (aurora A kinase (AURKA); Log[nM] 4.0): 30% | Aurora A % Activity Set2 (aurora A kinase (AURKA); Log[nM] 4.0): 33% | Aurora A % Activity Set3 (aurora A kinase (AURKA); Log[nM] 4.0): 27% | Aurora A % Activity Set1 (aurora A kinase (AURKA); Log[nM] 4.5): 14% | Aurora A % Activity Set2 (aurora A kinase (AURKA); Log[nM] 4.5): 14% | Aurora A % Activity Set3 (aurora A kinase (AURKA); Log[nM] 4.5): 13% | Aurora A % Activity Set1 (aurora A kinase (AURKA); Log[nM] 5.0): 8% | Aurora A % Activity Set2 (aurora A kinase (AURKA); Log[nM] 5.0): 6% | Aurora A % Activity Set3 (aurora A kinase (AURKA); Log[nM] 5.0): 4%
Compound: COc1ccc(Nc2ncnc3[nH]ccc23)cc1 [Compound 6, N^4-(4-methoxyphenyl)-7H-pyrrolo[2,3-d]pyrimidine-4-amine]
